Measurements as given in publication PMC7501296, “Rapid and direct control of target protein levels with VHL-recruiting dTAG molecules” (Nature Communications, 2020).
Values joined by “and” are separate entries in the source; they are usually repeats but may differ in a detail not shown here. Equal entries are not always repeated.

Key:
[1] = test system: EWS502 FKBP12^F36V-EWS/FLI; EWS/FLI^−/− cells; assay: Synergy assessment: antiproliferation of EWS502 FKBP12F36V-EWS/FLI; EWS/FLI-/- cells co-treated with dTAGV-1 and dBET6, 72 h; type: cell-based
Method: Cell viability was assayed in 2D-adherent or ultra-low adherent 3D-spheroids using CellTiter-Glo (Promega)[6],[15]. Luminescence was measured on an Envision 2104 plate reader (PerkinElmer) and Fluostar Omega Reader (BMG Labtech) and data was analyzed using GraphPad PRISM v8. Synergy assessments were performed using CellTiter-Glo (Promega) with the following modifications to the protocol described in the ref. [34]. In brief, EWS502 cells were plated at 1000 cells per well in 50 µL of appropriate media in 384-well white culture plates (Corning) allowed to adhere overnight, and 100 nL of compounds were added using a Janus Workstation pin tool (PerkinElmer) for 72 h. Cell viability was measured by addition of 10 µL of CellTiter-glo (Promega), followed by incubation for 15 minutes at room temperature. Luminescence was measured on an Envision 2104 plate reader (PerkinElmer) and data was analyzed using GraphPad PRISM v8.

luciferase-FKBP12^F36V = biological target: T1, luciferase-FKBP12^F36V (Homo sapiens, UniProt P62942, F37V); assay: Pharmacodynamic evaluation: bioluminescence of MV4;11 luc-FKBP12F36V cells in mice; type: in vivo, mice (NSG); design: Total flux for each mouse: unit not given here; conditions: for Total flux for each mouse: single mice
T1 construct: luciferase (fusion partner); expressed in transfected cells; host or cells: MV4;11 cells transplanted into NSG mice
T1 sequence (P62942 2-108 F37V limits assumed): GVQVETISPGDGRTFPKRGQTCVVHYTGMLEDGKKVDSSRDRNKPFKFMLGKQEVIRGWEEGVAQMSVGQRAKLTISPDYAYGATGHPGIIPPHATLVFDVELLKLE
From the text: For IP injections, dTAG-13 and dTAG^V-1 were formulated by dissolving into DMSO and then diluting with 20% solutol (Sigma): 0.9% sterile saline (Moltox) (w:v) with the final formulation containing 5% DMSO. […] Formulations were stable at room temperature for 7 days. For IV injections, dTAG-13 and dTAG^V-1 were formulated by dissolving into DMSO and then diluting with 5% solutol (Sigma): 0.9% sterile saline (Moltox) (w:v) with the final formulation containing 5% DMSO.
All procedures for PD studies were compliant with ethical regulations for animal testing and research, and were approved by and performed in accordance with standards of the IACUC at Dana–Farber Cancer Institute. Housing conditions for mice at Dana–Farber Cancer Institute were as follows: lights on = 6 AM, lights off = 6 PM, average ambient temperature = 72 °F, and average humidity = 35–55%. Evaluation of degradation of luciferase in vivo was performed using MV4;11 luc-FKBP12^F36V cells and bioluminescent measurements[6],[48]. In brief, 250,000 viable MV4;11 luc-FKBP12^F36V cells were transplanted by tail-vein injection in 8-week-old immunocompromised female mice (NOD.Cg-Prkdc^scidIl2rg^tm1Wjl/SzJ, NSG; Jackson Laboratory, #005557). Bioluminescent measurements were performed following IP injection of 75 mg kg^−1 D-Luciferin (Promega). Mice were then anesthetized with 2−3% isoflurane, imaged on an IVIS Spectrum (Caliper Life Sciences), and total body bioluminescence was determined using a standardized region of interest. Two and seven days after tail-vein injection, bioluminescent measurements were performed to confirm engraftment. […] For treatments, compounds were formulated as described above, administered via IP injection and bioluminescent measurements were performed daily as described in Fig. 2d, beginning 8 days after tail-vein injection.

## CC[C@H](C(=O)N1CCCC[C@H]1C(=O)O[C@H](CCc1ccc(OC)c(OC)c1)c1ccccc1OCC(=O)NCCCCCCC(=O)N[C@H](C(=O)N1C[C@H](O)C[C@H]1C(=O)N[C@@H](C)c1ccc(-c2scnc2C)cc1)C(C)(C)C)c1cc(OC)c(OC)c(OC)c1 [dTAG^V-1]
[1]; 19.5 nM dTAGV-1 alone
  Average DMSO-normalized ratio used for CI calculation: 0.9622
[1]; 78 nM dTAGV-1 alone
  Average DMSO-normalized ratio used for CI calculation: 1.188
[1]; 312.5 nM dTAGV-1 alone
  Average DMSO-normalized ratio used for CI calculation: 1.089
[1]; 1250 nM dTAGV-1 alone
  Average DMSO-normalized ratio used for CI calculation: 1.112
[1]; 5000 nM dTAGV-1 alone
  Average DMSO-normalized ratio used for CI calculation: 1.06
[1]; co-treatment 19.5 nM dTAGV-1 (log10[M] -7.70927) + 1 nM dBET6 (log10[M] -9.0103)
  DMSO-normalized antiproliferation, Mean: 98.11
[1]; co-treatment 19.5 nM dTAGV-1 (log10[M] -7.70927) + 4 nM dBET6 (log10[M] -8.40824)
  DMSO-normalized antiproliferation, Mean: 98.09
[1]; co-treatment 19.5 nM dTAGV-1 (log10[M] -7.70927) + 15.6 nM dBET6 (log10[M] -7.80618)
  DMSO-normalized antiproliferation, Mean: 79.8
[1]; co-treatment 19.5 nM dTAGV-1 (log10[M] -7.70927) + 62.5 nM dBET6 (log10[M] -7.20412)
  DMSO-normalized antiproliferation, Mean: 50.57
[1]; co-treatment 19.5 nM dTAGV-1 (log10[M] -7.70927) + 250 nM dBET6 (log10[M] -6.60206)
  DMSO-normalized antiproliferation, Mean: 35.76
[1]; co-treatment 78 nM dTAGV-1 (log10[M] -7.10721) + 1 nM dBET6 (log10[M] -9.0103)
  DMSO-normalized antiproliferation, Mean: 113.36
[1]; co-treatment 78 nM dTAGV-1 (log10[M] -7.10721) + 4 nM dBET6 (log10[M] -8.40824)
  DMSO-normalized antiproliferation, Mean: 105.67
[1]; co-treatment 78 nM dTAGV-1 (log10[M] -7.10721) + 15.6 nM dBET6 (log10[M] -7.80618)
  DMSO-normalized antiproliferation, Mean: 83.17
[1]; co-treatment 78 nM dTAGV-1 (log10[M] -7.10721) + 62.5 nM dBET6 (log10[M] -7.20412)
  DMSO-normalized antiproliferation, Mean: 54.14
[1]; co-treatment 78 nM dTAGV-1 (log10[M] -7.10721) + 250 nM dBET6 (log10[M] -6.60206)
  DMSO-normalized antiproliferation, Mean: 36.78
[1]; co-treatment 312.5 nM dTAGV-1 (log10[M] -6.50515) + 1 nM dBET6 (log10[M] -9.0103)
  DMSO-normalized antiproliferation, Mean: 111.14
[1]; co-treatment 312.5 nM dTAGV-1 (log10[M] -6.50515) + 4 nM dBET6 (log10[M] -8.40824)
  DMSO-normalized antiproliferation, Mean: 105.95
[1]; co-treatment 312.5 nM dTAGV-1 (log10[M] -6.50515) + 15.6 nM dBET6 (log10[M] -7.80618)
  DMSO-normalized antiproliferation, Mean: 72.28
[1]; co-treatment 312.5 nM dTAGV-1 (log10[M] -6.50515) + 62.5 nM dBET6 (log10[M] -7.20412)
  DMSO-normalized antiproliferation, Mean: 49.08
[1]; co-treatment 312.5 nM dTAGV-1 (log10[M] -6.50515) + 250 nM dBET6 (log10[M] -6.60206)
  DMSO-normalized antiproliferation, Mean: 33.26
[1]; co-treatment 1250 nM dTAGV-1 (log10[M] -5.90309) + 1 nM dBET6 (log10[M] -9.0103)
  DMSO-normalized antiproliferation, Mean: 89.48
[1]; co-treatment 1250 nM dTAGV-1 (log10[M] -5.90309) + 4 nM dBET6 (log10[M] -8.40824)
  DMSO-normalized antiproliferation, Mean: 74.91
[1]; co-treatment 1250 nM dTAGV-1 (log10[M] -5.90309) + 15.6 nM dBET6 (log10[M] -7.80618)
  DMSO-normalized antiproliferation, Mean: 44.25
[1]; co-treatment 1250 nM dTAGV-1 (log10[M] -5.90309) + 62.5 nM dBET6 (log10[M] -7.20412)
  DMSO-normalized antiproliferation, Mean: 31.06
[1]; co-treatment 1250 nM dTAGV-1 (log10[M] -5.90309) + 250 nM dBET6 (log10[M] -6.60206)
  DMSO-normalized antiproliferation, Mean: 29.68
[1]; co-treatment 5000 nM dTAGV-1 (log10[M] -5.30103) + 1 nM dBET6 (log10[M] -9.0103)
  DMSO-normalized antiproliferation, Mean: 80.15
[1]; co-treatment 5000 nM dTAGV-1 (log10[M] -5.30103) + 4 nM dBET6 (log10[M] -8.40824)
  DMSO-normalized antiproliferation, Mean: 47.93
[1]; co-treatment 5000 nM dTAGV-1 (log10[M] -5.30103) + 15.6 nM dBET6 (log10[M] -7.80618)
  DMSO-normalized antiproliferation, Mean: 27.9
[1]; co-treatment 5000 nM dTAGV-1 (log10[M] -5.30103) + 62.5 nM dBET6 (log10[M] -7.20412)
  DMSO-normalized antiproliferation, Mean: 26.15
[1]; co-treatment 5000 nM dTAGV-1 (log10[M] -5.30103) + 250 nM dBET6 (log10[M] -6.60206)
  DMSO-normalized antiproliferation, Mean: 25.03
[1]; dTAGV-1 log10[M] -5.30103, with DMSO (no dBET6)
  DMSO-normalized antiproliferation, Mean: 106.03
[1]; dTAGV-1 log10[M] -5.90309, with DMSO (no dBET6)
  DMSO-normalized antiproliferation, Mean: 111.22
[1]; dTAGV-1 log10[M] -6.50515, with DMSO (no dBET6)
  DMSO-normalized antiproliferation, Mean: 108.9
[1]; dTAGV-1 log10[M] -7.10721, with DMSO (no dBET6)
  DMSO-normalized antiproliferation, Mean: 118.75
[1]; dTAGV-1 log10[M] -7.70927, with DMSO (no dBET6)
  DMSO-normalized antiproliferation, Mean: 96.22
luciferase-FKBP12^F36V; 35 mg kg^−1 IP
  Bioluminescent signal 4 h after each of the three administrations: Consistent loss of bioluminescent signal
  Bioluminescent signal 4 h after the first administration: Striking loss of bioluminescent signal
luciferase-FKBP12^F36V; 35 mg kg^−1 IP, after the final administration
  Duration of degradation: degradation evident 28 h after the final administration
luciferase-FKBP12^F36V; Baseline (day 0, before treatment), MV4;11 luc-FKBP12F36V
  Total flux for each mouse: 1893000 and 1330000 and 3116000 and 1809000 and 3338000
luciferase-FKBP12^F36V; No treatment (day 4), 28 h after third and final treatment
  Total flux for each mouse: 601200 and 13590000 and 24710000 and 1755000 and 24650000
luciferase-FKBP12^F36V; Treatment #1 (day 1), 4 h after 35 mg kg^−1 IP
  Total flux for each mouse: 4041000 and 2159000 and 3736000 and 2539000 and 5912000
luciferase-FKBP12^F36V; Treatment #2 (day 2), 4 h after 35 mg kg^−1 IP
  Total flux for each mouse: 3135000 and 1001000 and 2876000 and 2693000 and 9211000
luciferase-FKBP12^F36V; Treatment #3 (day 3), 4 h after 35 mg kg^−1 IP
  Total flux for each mouse: 4741000 and 1924000 and 4372000 and 3069000 and 6943000
